Read-outs that look alike come from different tables or passages of the source.
Assays:
Progesterone Receptor = molecular target: T1, Progesterone Receptor (Homo sapiens, UniProt P06401); assay: Assay for Progesterone Receptor Agonist Activity (CV-1 cells, PRb-BacMam, MMTV-BacMam); format: cell-based; settings: at least once in this assay, read-out: progesterone receptor agonist pEC50 (converted)
T1 construct: expressed in transfected cells; host or cells: CV-1 cells transduced with PRb-BacMam and MMTV-BacMam
T1 sequence (P06401 1-933): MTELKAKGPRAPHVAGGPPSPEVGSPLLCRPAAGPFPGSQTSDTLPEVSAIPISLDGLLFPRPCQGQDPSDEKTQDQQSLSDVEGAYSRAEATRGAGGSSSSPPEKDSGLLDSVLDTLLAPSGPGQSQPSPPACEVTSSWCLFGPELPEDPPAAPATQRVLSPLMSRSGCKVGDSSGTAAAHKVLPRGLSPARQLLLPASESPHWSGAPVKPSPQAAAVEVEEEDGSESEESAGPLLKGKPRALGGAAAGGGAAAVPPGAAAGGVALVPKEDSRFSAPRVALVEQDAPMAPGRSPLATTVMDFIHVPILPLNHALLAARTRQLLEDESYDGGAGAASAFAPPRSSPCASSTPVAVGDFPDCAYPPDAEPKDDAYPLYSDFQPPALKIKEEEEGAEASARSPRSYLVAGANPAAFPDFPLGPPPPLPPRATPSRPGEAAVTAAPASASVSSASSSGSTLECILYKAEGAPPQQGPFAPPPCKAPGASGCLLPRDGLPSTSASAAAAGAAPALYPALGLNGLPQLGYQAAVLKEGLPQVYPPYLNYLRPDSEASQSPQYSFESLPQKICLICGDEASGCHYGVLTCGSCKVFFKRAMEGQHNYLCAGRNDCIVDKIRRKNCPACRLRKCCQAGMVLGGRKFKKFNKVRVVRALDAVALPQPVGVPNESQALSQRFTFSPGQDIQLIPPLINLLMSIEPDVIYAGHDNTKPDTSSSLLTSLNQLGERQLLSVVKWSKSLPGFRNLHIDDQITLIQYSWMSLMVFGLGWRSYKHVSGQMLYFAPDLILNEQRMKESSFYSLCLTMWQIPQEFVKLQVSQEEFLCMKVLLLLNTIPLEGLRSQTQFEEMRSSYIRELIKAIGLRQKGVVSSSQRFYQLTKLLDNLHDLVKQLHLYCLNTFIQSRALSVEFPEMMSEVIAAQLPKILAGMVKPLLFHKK
Method: A T225 flask of CV-1 cells at a density of 80% confluency was washed with PBS, detached from the flask using 0.25% trypsin and counted using a Sysmex KX-21N. Cells were diluted in DMEM containing 10% Hyclone, 2 mM […] and 1% Pen/Strep at 140 cells/μl and transduced with 10% PRb-BacMam and 10% MMTV-BacMam. […] of suspension cells were dispensed to each well of white Nunc 384-well plates, containing compounds at the required concentration. After 24 hr 10 μl of Steadylite were added to each well of the plates. Plates were incubated in the dark for 10 min before reading them on a Viewlux reader. Dose response curves were constructed from which pEC50 values were estimated.

GR [1] = molecular target: T2, GR (Homo sapiens, UniProt P04150); assay: GR Agonist Assay - MMTV Assay (A549 MMTV cells, renilla luciferase reporter); format: cell-based; settings: 6 h, agonists, read-out: average maximum asymptote in the MMTV agonist assay
T2 construct: endogenous in cells; host or cells: A549 (human lung carcinoma, ECACC No. 86012804), stably transfected with reporter plasmids only
T2 sequence (P04150 1-777): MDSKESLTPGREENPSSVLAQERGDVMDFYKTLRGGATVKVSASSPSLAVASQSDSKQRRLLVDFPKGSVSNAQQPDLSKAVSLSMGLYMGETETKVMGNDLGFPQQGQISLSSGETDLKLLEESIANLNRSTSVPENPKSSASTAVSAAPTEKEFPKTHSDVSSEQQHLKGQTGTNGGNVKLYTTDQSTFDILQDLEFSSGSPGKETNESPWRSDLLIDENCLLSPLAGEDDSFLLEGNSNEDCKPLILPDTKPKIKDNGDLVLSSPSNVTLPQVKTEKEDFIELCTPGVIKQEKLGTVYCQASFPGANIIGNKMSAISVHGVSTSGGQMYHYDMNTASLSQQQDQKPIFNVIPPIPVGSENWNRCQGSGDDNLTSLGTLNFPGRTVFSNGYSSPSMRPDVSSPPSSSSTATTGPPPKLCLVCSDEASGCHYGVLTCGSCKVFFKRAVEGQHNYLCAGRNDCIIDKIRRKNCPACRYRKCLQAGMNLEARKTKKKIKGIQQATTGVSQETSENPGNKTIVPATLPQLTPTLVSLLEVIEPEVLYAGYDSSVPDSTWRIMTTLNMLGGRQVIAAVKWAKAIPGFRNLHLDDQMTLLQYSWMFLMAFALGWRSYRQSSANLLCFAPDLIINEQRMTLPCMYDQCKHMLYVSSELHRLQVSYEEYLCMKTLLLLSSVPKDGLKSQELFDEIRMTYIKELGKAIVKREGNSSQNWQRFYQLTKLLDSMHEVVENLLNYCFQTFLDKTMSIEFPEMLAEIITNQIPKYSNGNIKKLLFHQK
Method: (§1) Stimulation of the cell line with GR agonists results in intracellular signal transduction and ultimately translocation of GR into the nucleus. This activates the inserted DNA sequence resulting in transcription of the integrated luciferase gene, which is quantified using a light emission. The stably transfected cell line was grown as a monolayer in DMEM supplemented with FCS-HI (10%), Non-essential amino acids (1%), L-Glutamine (2 mM), Pen/Strep (1%) and Geneticin (50 mg/ml).
A 90% confluent T175 flask of A549 MMTV cells was harvested by centrifugation for 5 min at 200 g, resuspended in assay buffer (DMEM supplemented with 10% FCS 2×HI, 2 mM Glutamax, Non essential amino acids and 25 mM HEPES) and diluted to 0.1×10^6/ml. 70 μl of cell solution was dispensed to each well of white Nunc 384-well plates, containing compound at the required concentration. […] The plates were covered to protect the reagents from light, and then incubated at room temperature for approximately 15 mins before reading them on a Viewlux.

glucocorticoid receptor = molecular target: T3, glucocorticoid receptor (Homo sapiens, UniProt P04150); assay: Glucocorticoid Receptor Binding Assay (fluorescence polarisation, displacement of Alexa 555 labelled dexamethasone derivative); settings: at least once in this assay; read-out: glucocorticoid binding pIC50 (converted)
T3 construct: a partially purified full length glucocorticoid receptor
T3 sequence (P04150 1-777): T2 sequence (P04150 1-777)
Method: Compounds were solvated and diluted in DMSO, and transferred directly into assay plates. Fluorescent dexamethasone and a partially purified full length glucocorticoid receptor were added to the plates, together with buffer components to stabilise the GR protein and incubated at room temperature for 2 hr in the dark. Binding of each compound was assessed by analysing the displacement of fluorescent ligand by measuring the decrease in fluorescence polarisation signal from the mixture.

GR [2] = molecular target: T2, GR; assay: GR Functional Assay - NFκB Assay (A549 SPAP cells, TNFα stimulated); format: cell-based; settings: for Emax: agonists, read-out: average maximum asymptote in the NFkB assay
Method: as §1, with “TNFα” for “GR agonists”, “NFκB” for “GR”, “SPAP” for “luciferase”, “calorimetric assay. […]” for “light emission.”
A 70% confluent T225 flask of A549 SPAP cells was harvested by centrifugation for 5 mins at 200 g, resuspended in assay buffer (DMEM supplemented with 10% FCS 2×HI, 2 mM L-Glutamine, 1% Pen/Strep and Non essential amino acids) and diluted to 0.16×10^6/ml. 60 μl of cell solution was dispensed to each well of clear Nunc 384-well plates, containing compound at the required concentration. […] Plates were equilibrated to room temperature for 1 hr prior to the addition of 25 μl of pNPP buffer (1M Diethanolamine pH 9.8, 0.5 mM MgCl2, 0.28M NaCl, 2 mg/ml pNPP) to each well of assay plates.

[3] = at least once in the NFkB assay, A549 SPAP cells, read-out: pIC50 in the NFkB assay (converted)
[4] = at least once, examples listed as agonists in NFkB and MMTV assays, read-out: potency pIC50 in the NFKB assay (converted)

Row | Structure (SMILES) | EC50 (Progesterone Receptor) [µM] | Emax (GR [1]) [%] | IC50 (glucocorticoid receptor) [µM] | Emax (GR [2]; A549 SPAP cells) [%] | IC50 (GR [2]; [3]) [µM] | IC50 (GR [2]; [4]) [µM]
1 | CCN(CC(O)(CNC(=O)c1cnn(-c2ccc(F)cc2)c1N)C(F)(F)F)C(=O)c1ncccc1Cl (racemic) [Example 3 (racemic), N-[2-[({[5-Amino-1-(4-fluorophenyl)-1H-pyrazol-4-yl]carbonyl]amino)methyl]-3,3,3-trifluoro-2-hydroxypropyl}-3-chloro-N-ethyl-2-Pyridinecarboxamide] | > 1 |  |  |  |  | 
2 | CCN(CC(O)(CNC(=O)c1cnn(-c2ccc(F)cc2)c1N)C(F)(F)F)C(=O)c1ccccc1F (racemic) [Example 4 (racemic), 5-Amino-N-[2-({ethyl[(2-fluorophenyl)carbonyl]amino}methyl)-3,3,3-trifluoro-2-hydroxypropyl]-1-(4-fluorophenyl)-1H-pyrazole-4-carboxamide] | > 1 | ≥ 40 | < 1 | ≥ 40 | < 1 | < 0.316
3 | CN(CC(O)(CNC(=O)c1cnn(-c2ccc(F)cc2)c1N)C(F)(F)F)C(=O)c1ccccc1F (racemic) [Example 6 (racemic), 5-amino-1-(4-fluorophenyl)-N-(3,3,3-trifluoro-2-{[[(2-fluorophenyl)car-bonyl](methyl)amino]methyl}-2-hydroxypropyl)-1H-pyrazole-4-carboxamide] | > 1 | ≥ 40 | < 1 | ≥ 40 | < 1 | < 0.316
4 | CN(CC(O)(CNC(=O)c1cnn(-c2ccc(F)cc2)c1N)C(F)(F)F)C(=O)c1ccccc1Cl (racemic) [Example 7 (racemic), 5-amino-N-(2-{[[(2-chlorophenyl)car-bonyl](methyl)amino]methyl}-3,3,3-trifluoro-2-hydroxypropyl)-1-(4-fluorophenyl)-1H-pyrazole-4-carboxamide] | > 1 | ≥ 40 | < 1 | ≥ 40 | < 1 | < 0.316
5 | CCN(CC(O)(CNC(=O)c1cnn(-c2ccc(F)cc2)c1N)C(F)(F)F)C(=O)c1cccc2cccnc12 (racemic) [Example 8 (racemic), N-{2-[({[5-amino-1-(4-fluorophenyl)-1H-pyrazol-4-yl]carbonyl}amino)methyl]-3,3,3-trifluoro-2-hydroxypropyl}-N-ethyl-8-quinolinecarboxamide] | > 1 | ≥ 40 |  | ≥ 40 | < 1 | < 0.316
6 | CCN(CC(O)(CNC(=O)c1cnn(-c2ccc(F)cc2)c1N)C(F)(F)F)C(=O)c1ccccc1Cl (racemic) [Example 16 (racemic), 5-amino-N-(2-{[[(2-chlorophenyl)car-bonyl](ethyl)amino]methyl}-3,3,3-trifluoro-2-hydroxypropyl)-1-(4-fluorophenyl)-1H-pyrazole-4-carboxamide] | > 1 |  |  |  |  | 
7 | Nc1c(C(=O)NCC(O)(CN(CCF)C(=O)c2ccccc2)C(F)(F)F)cnn1-c1ccc(F)cc1 (single isomer, unassigned) [Example 1 Enantiomer 1, 5-Amino-1-(4-fluorophenyl)-N-(3,3,3-trifluoro-2-{[(2-fluoroethyl)(phenylcarbonyl)amino]methyl}-2-hydroxypropyl)-1H-pyrazole-4-carboxamide] | > 1 |  | < 1 |  | < 1 | 
8 | CCN(CC(O)(CNC(=O)c1cnn(-c2ccc(F)cc2)c1N)C(F)(F)F)C(=O)c1ccccc1F (single isomer, unassigned) [Example 4 Enantiomer 1, 5-Amino-N-[2-({ethyl[(2-fluorophenyl)carbonyl]amino}methyl)-3,3,3-trifluoro-2-hydroxypropyl]-1-(4-fluorophenyl)-1H-pyrazole-4-carboxamide] | > 1 |  |  |  | < 1 | 
9 | CCN(CC(O)(CNC(=O)c1cnn(-c2ccc(F)cc2)c1N)C(F)(F)F)C(=O)c1ccccc1 (single isomer, unassigned) [Example 14 Enantiomer 1, 5-amino-N-(2-{[ethyl(phenylcar-bonyl)amino]methyl}-3,3,3-trifluoro-2-hydroxypropyl)-1-(4-fluorophenyl)-1H-pyrazole-4-carboxamide] | > 1 |  | < 1 |  |  | 
10 | CCN(CC(O)(CNC(=O)c1cnn(-c2ccc(F)cc2)c1N)C(F)(F)F)C(=O)c1ccccc1Cl (single isomer, unassigned) [Example 16 Enantiomer 1, 5-amino-N-(2-{[[(2-chlorophenyl)car-bonyl](ethyl)amino]methyl}-3,3,3-trifluoro-2-hydroxypropyl)-1-(4-fluorophenyl)-1H-pyrazole-4-carboxamide] | > 1 |  |  |  |  | 

Reference: patent publication US20100035926A1, “PYRAZOLE DERIVATIVES AS NON-STEROIDAL GLUCOCORTICOID RECEPTOR LIGANDS” (priority 2006, published 2010)
